Data published in US10428024B2, “Piperidinyl derivatives” (MERCK PATENT GMBH, priority 2016, dated 2019).

Tests used:
human PDHK2 (12-407) = human PDHK2 (12-407) (Homo sapiens (Human), UniProt Q15119); test: Isothermal titration calorimetry (ITC); conditions: 30° C., pH 7.5; read-out: Binding (ITC) KD
Method: Isothermal Titration Calorimetry
ITC measurements were performed with a VP-ITC micro calorimeter (Microcal, LLC/GE Healthcare Bio-Sciences AB, Uppsala, Sweden). In general titrations were performed by titrating the protein (50 μM) to the test compound (5 μM) in 12 μl injections. All binding experiments were carried out at 30° C. In general the test compounds were diluted form DMSO stock solutions into the measurement buffer with a maximum final concentration of 1% DMSO. The measurement buffer was 20 mM HEPES, 135 mM KCl, 1 mM TCEP, 2 mM MgCl2, 15 mM NaH2PO4, pH 7.5. The human PDHK2 (12-407) was produced in E. coli as his-tagged protein and purified by affinity chromatography. The tag was removed by side specific proteolysis. Before titration the protein buffer was changed to the measurement buffer containing the same DMSO concentration as the test compound dilution. ITC data analysis was performed using Origin 7 calorimetry software from the same supplier. For most measurements a binding model of one binding site was assumed. According to the applied mathematical model it is possible to calculate the binding constant (KA), the observed binding enthalpy (ΔH^obs) as well as the stoichiometry (N) of the formed complex. Preceding analysis the raw data was corrected for the heats of dilution by extrapolating from the saturation value from the end of titration. In order to allow for direct comparison between the respective experimental series and protein preparations the protein concentration was corrected by referencing titrations to a well behaved standard inhibitor. The apparent stoichiometry values defined the fraction of binding competent protein and compensated for relative errors in protein concentration measurements. This corrected protein concentration was used to set up ITC experiment series with test compounds. Any deviations from ideal 1:1 stoichiometry observed here were attributed to errors in compound concentration. This nominal compound concentration was corrected as well to achieve 1:1 stoichiometry in the fit.

[1] = system: PDH-E1alpha (pSer300) in HEK293T cells; test: Cellular immunofluorescence assay (Anti-PDH-E1alpha (pSer300)) in HEK293T cells; format: cell-based; conditions: Homo sapiens, HEK-293T, 5 hours incubation, read-out: IC50 (cell data)
Method: Cellular Assay for Determination of Compound Activities
Compound activities were determined in a cellular immunofluorescence assay.
Human HEK293T cells were seeded into black 384-well plates with clear bottom and grown overnight.
Next day, test compounds were added to the wells and the plates incubated for 5 hours. Following this, cells were fixed with formaldehyde, permeabilised and blocked. The primary antibody, Anti-PDH-E1alpha (pSer300), AP1064 (Merck Millipore) was added and incubated overnight in the plate wells. Next, cells were washed and the secondary antibody, Alexa Fluor 488, goat anti-rabbit ab (A-11008, Invitrogen) was added together with Hoechst 33258 (H3569, Invitrogen) and incubated for 1 hour in the plate wells. Finally, cells were washed and the plates were measured on the laser scanning cytometer acumen hci (TTpLabtech).
The raw data were normalized against a pharmacological inhibitor control and dose response curves were generated by plotting the percent effect values using the software package Genedata screener (Genedata).

PDHK2 = PDHK2 (Homo sapiens (Human), UniProt Q15119); test: Biochemical activity testing of PDHK2: PDC inactivation assay; conditions: human rec PDHK2, 5 μM ATP, read-out: IC50 PDHK2 (enzyme assay)
Description: Biochemical Activity Testing of PDHK2: PDC Inactivation Assay
The biochemical activity assay for PDHK2 is based on the inactivation of PDC through phosphorylation by PDHK2. The assay is run in two steps: the enzymatic PDHK2 reaction in which isolated PDC is phosphorylated by PDHK2 with ATP as co-substrate and the PDC activity assay in which pyruvate and NAD are converted to acetyl-CoA and NADH. The PDC activity correlates to the increase in NADH and thereby is detectable directly via the increasing fluorescence signal (Exc 340 nm, Em 450 nm). Inhibition of PDHK2 results in a lower phosphorylation status and thereby a less decrease in activity of PDC and a stronger increase in NADH fluorescence signal.
The PDC inactivation assay is performed in Greiner 384-well microtiter plates and is used for high throughput screen. 4 μl of PDHK2 (human, rec, Carna Bioscience, 10 ng/μl-137 nM final concentration) and PDC (isolated from porcine heart, Sigma-Aldrich, 20 mU/ml final concentration) are incubated in the absence or presence of the test compound (10 dilution concentrations) for 30 min at room temperature in kinase buffer (15 mM potassium phosphate buffer, pH 7.0, 60 mM KCl, 1.5 mM DTT, 2.5 mM MgCl2, 0.0125% (w/v) BSA, 0.125% Pluronic F-68). The kinase reaction is started by the addition of 4 μl ATP substrate solution (fc 5 μM in kinase buffer). After 30 min incubation at 37° C. 40 μl of PDC reaction solution (100 mM Tris/HCl, pH 7.8, 0.5 mM EDTA, 1 mM MgCl2, 50 mM NaF, 0.25 mM Coenzyme A, 5 mM pyruvate, 1 mM NAD, 5 mM DTT, 1 mM thiamine pyrophosphate) is added. The first fluorescence measurement is performed on a Perkin Elmer Envision (Exc 340 nm, Em 450 nm). The reaction is incubated for 45 min at room temperature. Afterwards a second fluorescence measurement is performed and the PDC activity is calculated by the difference between both measurements. As full value for the PDHK2 assay the inhibitor-free PDHK2 reaction is used. The pharmacological zero value used is DCA (Sigma-Aldrich) in a final concentration of 3 mM. The inhibitory values (IC50) were determined using either the program Symyx Assay Explorer® or Condosseo® from GeneData.

Row | Kd (human PDHK2 (12-407)) [µM] | IC50 (PDHK2) [µM] | Compound | IC50 [1] [µM]
1 | 0.13 | 0.23 | C[C@@H]1CN(C(=O)[C@@](C)(O)C(F)(F)F)CC[C@@H]1N(C)C(=O)c1cnn(C)c1 [Compound A56, N,1-Dimethyl-N-[(3R,4S)-3-methyl-1-[(2R)-3,3,3-trifluoro-2-hydroxy-2-methylpropanoyl]piperidin-4-yl]-1H-pyrazole-4-carboxamide] | 0.91
2 | 0.057 | 0.26 | C[C@@H]1CN(C(=O)[C@@](C)(O)C(F)(F)F)CC[C@@H]1N(C)C(=O)c1ccc(Cl)cc1 [Compound A21, 4-Chloro-N-methyl-N-[(3R,4S)-3-methyl-1-[(2R)-3,3,3-trifluoro-2-hydroxy-2-methylpropanoyl]piperidin-4-yl]benzamide] | 0.16
3 | 0.19 | 0.59 | CN(C(=O)C1CCN(C(=O)[C@@](C)(O)C(F)(F)F)CC1)c1ccc(Cl)cc1 [Compound A5, 1-((R)-3,3,3-Trifluoro-2-hydroxy-2-methyl-propionyl)-piperidine-4-carboxylic acid (4-chloro-phenyl)-methyl-amide] | 2.8
4 | 0.016 | 0.13 | Cc1ccc(C(=O)N(C)[C@H]2CCN(C(=O)[C@@](C)(O)C(F)(F)F)C[C@H]2C)cc1 [Compound A24, N,4-Dimethyl-N-[(3R,4S)-3-methyl-1-[(2R)-3,3,3-trifluoro-2-hydroxy-2-methylpropanoyl]piperidin-4-yl]benzamide] | 0.29
5 | 0.031 | 0.16 | Cc1ccc(N(C)C(=O)[C@H]2CCN(C(=O)[C@@](C)(O)C(F)(F)F)C[C@H]2C)cc1 [Compound A7, (3S,4S)—N,3-Dimethyl-N-(4-methylphenyl)-1-[(2R)-3,3,3-trifluoro-2-hydroxy-2-methylpropanoyl]piperidine-4-carboxamide] | 0.019
6 | 0.066 | 0.24 | C[C@@H]1CN(C(=O)[C@@](C)(O)C(F)(F)F)CC[C@@H]1N(C)C(=O)c1ncc(F)cc1F [Compound A41, 3,5-Difluoro-N-methyl-N-[(3R,4S)-3-methyl-1-[(2R)-3,3,3-trifluoro-2-hydroxy-2-methylpropanoyl]piperidin-4-yl]pyridine-2-carboxamide] | 0.18
7 | 0.154 | 0.39 | CN(C(=O)c1ccc(Cl)cc1)C1CCN(C(=O)[C@@](C)(O)C(F)(F)F)CC1 [Compound A16, 4-Chloro-N-methyl-N-{1-[(2R)-3,3,3-trifluoro-2-hydroxy-2-methylpropanoyl]piperidin-4-yl}benzamide] | 1.5

More lines, now with the values behind:

Row | Compound | Kd (human PDHK2 (12-407)) [µM] | IC50 (PDHK2) [µM] | IC50 [1] [µM]
8 | C[C@@H]1CN(C(=O)[C@@](C)(O)C(F)(F)F)CC[C@@H]1N(C)C(=O)c1ccc(F)cc1F [Compound A38, 2,4-Difluoro-N-methyl-N-[(3R,4S)-3-methyl-1-[(2R)-3,3,3-trifluoro-2-hydroxy-2-methylpropanoyl]piperidin-4-yl]benzamide] | 0.019 | 0.18 | 0.11
9 | CC1CN(C(=O)[C@@](C)(O)C(F)(F)F)CCC1C(=O)N(C)c1ccc(Cl)cc1 (stereo partly drawn) [Compound A9, N-(4-chlorophenyl)-N,3-dimethyl-1-[(2R)-3,3,3-trifluoro-2-hydroxy-2-methylpropanoyl]piperidine-4-carboxamide] | 0.1 | 0.27 | 0.23
10 | C[C@@H]1CN(C(=O)[C@@](C)(O)C(F)(F)F)CC[C@@H]1N(C)C(=O)c1ccc(Cl)cc1F [Compound A59, 4-Chloro-2-fluoro-N-methyl-N-[(3R,4S)-3-methyl-1-[(2R)-3,3,3-trifluoro-2-hydroxy-2-methylpropanoyl]piperidin-4-yl]benzamide] | 0.02 | 0.098 | 0.053
11 | CN(C(=O)C1CCN(C(=O)[C@@](C)(O)C(F)(F)F)CC1)c1ccc(C(F)(F)F)cc1Cl [Compound A3, 1-((R)-3,3,3-Trifluoro-2-hydroxy-2-methyl-propionyl)-piperidine-4-carboxylic acid (2-chloro-4-trifluoromethyl-phenyl)-methyl-amide] | 0.038 | 0.41 | 2.1
12 | COc1ccc(C(=O)N(C)[C@H]2CCN(C(=O)[C@@](C)(O)C(F)(F)F)C[C@H]2C)cc1 [Compound A35, 4-Methoxy-N-methyl-N-[(3R,4S)-3-methyl-1-[(2R)-3,3,3-trifluoro-2-hydroxy-2-methylpropanoyl]piperidin-4-yl]benzamide] | 0.037 | 0.31 | 0.033
13 | Cc1ccc(C(=O)N(C(C)C)C2CCN(C(=O)[C@@](C)(O)C(F)(F)F)CC2)c(F)c1 [Compound A65, 2-Fluoro-N-isopropyl-4-methyl-N-[1-((R)-3,3,3-trifluoro-2-hydroxy-2-methyl-propionyl)-piperidin-4-yl]-benzamide] | 0.14 | 1.3 | 0.59
14 | Cc1ccc(N(C)C(=O)C2CCN(C(=O)[C@@](C)(O)C(F)(F)F)CC2)cc1 [Compound A1, 1-((R)-3,3,3-Trifluoro-2-hydroxy-2-methyl-propionyl)-piperidine-4-carboxylic Acid Methyl-p-Tolyl-Amide] | 0.13 | 1.1 | 5.3
